# Experimental data reported in patent US20080051284A1, “Fungicidal Mixtures for Controlling Rice Pathogens” (BASF AKTIENGESELLSCHAFT, priority 2003, published 2008).
# Test system: Corticium sasakii
# Test: Activity against sheath blight on rice caused by Corticium sasakii (protective spray, rice plants cultivar Tai-Nong 67)
# Type: in vivo
# Conditions: individual active compound, 11 days after infection
# Method: The active compounds, separately or jointly, were prepared as a stock solution with 0.25% by weight of active compound in acetone or DMSO. 1% by weight of the emulsifier Uniperol® EL (wetting agent having emulsifying and dispersing action based on ethoxylated alkylphenols) was added to this solution, and the solution was diluted with water to the desired concentration.
# Use Example—Activity Against Sheath Blight on Rice Caused by Corticium sasakii
# Pots of rice plants of the cultivar “Tai-Nong 67” were sprayed to runoff point with an aqueous suspension having the concentration of active compound stated below. The next day, oat grains infected with Corticium sasakii were placed into the pots (in each case 5 grains per pot). The plants were then placed in a chamber at 26° C. and maximum atmospheric humidity. After 11 days, the sheath blight on the untreated but infected control plants had developed to such an extent that the infection could be determined visually in %.
# Evaluation is carried out by determining the infected leaf areas in percent. These percentages were converted into efficacies.
# The efficacy (E) is calculated as follows using Abbot's formula:
# E=(1−α/β)·100 • α corresponds to the fungicidal infection of the treated plants in % and • β corresponds to the fungicidal infection of the untreated (control) plants in %
# An efficacy of 0 means that the infection level of the treated plants corresponds to that of the untreated control plants; an efficacy of 100 means that the treated plants are not infected.
# The expected efficacies of the mixtures of active compounds are determined using Colby's formula [R. S. Colby, Weeds 15, 20-22 (1967)] and compared with the observed efficacies.
# E=x+y−x·y/100 • E expected efficacy, expressed in % of the untreated control, when using the mixture of the active compounds A and B at the concentrations a and b • x efficacy, expressed in % of the untreated control, when using active compound A at the concentration a • y efficacy, expressed in % of the untreated control, when using active compound B at the concentration b
Structure (SMILES),Efficacy in % of the untreated control (4 ppm in the spray liquor),Efficacy in % of the untreated control (1 ppm in the spray liquor),Efficacy in % of the untreated control (16 ppm in the spray liquor)
CC(Nc1c(-c2c(F)cc(F)cc2F)c(Cl)nc2ncnn12)C(F)(F)F (stereo not drawn) [B],56%,–,–
CC1CCN(c2c(-c3c(F)cccc3Cl)c(Cl)nc3ncnn23)CC1 [A],12%,–,–
"N#Cc1c(Cl)c(Cl)c(Cl)c(C#N)c1Cl [II, 2,4,5,6-tetrachloroisophthalonitrile]",0%,0%,0%
"CC1CCN(c2c(-c3c(F)cc(F)cc3F)c(Cl)nc3ncnn23)CC1 [I, 5-chloro-7-(4-methylpiperidin-1-yl)-6-(2,4,6-trifluorophenyl)-[1,2,4]tri-azolo[1,5-a]pyrimidine]",34%,–,–
